The subject of one data set is scn1lab mutant zebrafish. The data set is described as follows: locomotion (mean swim velocity) seizure-like behaviour assay in scn1lab mutant zebrafish larvae. As to conditions: for change in vivo at 100 µM / change in vivo at 250 µM: Danio rerio; for effect on seizure-like swim behaviour, initial library screen: 100 µM or 250 µM, UCSF-synthesized compound; for effect on seizure-like swim behaviour, retest of independently synthesized compound: 10, 50, 100 and 250 µM; for effect on seizure-like swim behaviour, retest of independently synthesized compound / effect on seizure-like swim behaviour, commercially available compounds: 30 and 90 min exposure; for effect on seizure-like swim behaviour, commercially available compounds: three concentrations. It counts as in vivo, Danio rerio. The method, then:
(§1) For locomotion studies, zebrafish larvae (5 days post-fertilization) were placed into a single well of a clear flat-bottomed 96-well microplate containing embryo media. Sex determination is not possible at this stage of development. All drug screening experiments were conducted in an unbiased manner by investigators blinded to the test compounds and all files coded for post hoc analysis. The 96-well plate containing larvae was then placed inside a DanioVision box where they were allowed to acclimate (20 min; room temperature). EthoVision XT software (DanioVision, Noldus Information Technology) was used to obtain locomotion plots (10 min in duration). Seizure scoring was performed, as described ([Baraban et al., 2005]). All locomotion plots were analysed for distance travelled (in millimetres) and mean velocity (in millimetres per second). After 90 min of drug exposure larvae were examined for toxic side-effects. Compounds that decreased or stopped the larva heartbeat, or reduced or eliminated the escape response when touched, were considered toxic.
For behaviour analysis, the threshold for a change in mean swim velocity ≥40% is considered significant (>1.5× SD of 250 control treated scn1lab). Unless otherwise indicated, all data in this manuscript are presented as the mean ± standard error of the mean. […] Statistically significant differences are indicated with asterisks (*P < 0.05; **P < 0.01; ***P < 0.001). […]

Data set [1] deals with scn1lab mutant zebrafish larvae. Kind of data set: toxicity check of larvae after 90 min drug exposure (heartbeat, escape response). It counts as in vivo, Danio rerio. As to conditions: 100 µM or 250 µM; 90 min exposure. The method, then: as §1, with “Seizure scoring was performed, as described ([Baraban et al., 2005]).” left out
The next data set addresses human 5-HT2BR (Homo sapiens, UniProt P41595). Kind of data set: radioligand binding (NIMH PDSP). As to conditions: read-out: Ki 5-HT2BR. How it is done: (§2) All in vitro binding assay and Ki data studies were performed by the US National Institute of Mental Health Psychoactive Drug Screening Program (NIMH PDSP). For these studies, drugs were screened against recombinant, stably expressed human 5-HT2AR, 5-HT2BR, 5-HT2CR and H1, as described at https://pdspdb.unc.edu/pdspWeb/ ([Besnard et al., 2012]).

Data set [2] concerns the target T1, human 5-HT2CR (Homo sapiens, UniProt P28335).
T1 sequence (P28335 33-458): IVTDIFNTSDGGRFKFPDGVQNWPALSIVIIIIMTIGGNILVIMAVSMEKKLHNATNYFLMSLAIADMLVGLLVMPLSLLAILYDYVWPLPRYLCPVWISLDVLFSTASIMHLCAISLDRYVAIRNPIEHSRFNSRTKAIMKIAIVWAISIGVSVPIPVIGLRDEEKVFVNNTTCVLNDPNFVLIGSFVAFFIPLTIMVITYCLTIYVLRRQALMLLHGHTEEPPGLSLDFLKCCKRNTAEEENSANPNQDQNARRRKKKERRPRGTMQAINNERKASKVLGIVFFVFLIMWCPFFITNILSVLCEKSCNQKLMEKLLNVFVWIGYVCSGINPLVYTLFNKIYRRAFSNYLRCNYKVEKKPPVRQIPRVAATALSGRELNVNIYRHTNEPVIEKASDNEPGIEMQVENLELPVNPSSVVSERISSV
Kind of data set: radioligand binding (NIMH PDSP). The method, then:
as §2

Another data set has as its target human 5-HT2AR (Homo sapiens, UniProt P28223). Kind of data set: radioligand binding (NIMH PDSP). How it is done: as §2
A further data set has as its target human H1 (Homo sapiens, UniProt P35367). The data set is described as follows: radioligand binding (NIMH PDSP). The following applies: read-out: Ki H1. The method, then:
as §2

Data set [3] has as its target T1, human 5-HT2CR. The following applies: commercially available compounds known to bind 5-HT2BR; ref Roth et al., 2000; read-out: 5-HT2CR (nM), Table S3; cited from earlier work.
Setting [4] is: read-out: % change in velocity, individual larva 1 (heat map).
The mark [5] stands for this setting: read-out: % change in velocity, individual larva 2 (heat map).
Setting [6] is: read-out: % change in velocity, individual larva 3 (heat map).
Where [7] appears, read: read-out: % change in velocity, individual larva 4 (heat map).
Setting [8] is: read-out: % change in velocity, individual larva 5 (heat map).
[9] abbreviates: read-out: % change in velocity, individual larva 6 (heat map).
[10] abbreviates: read-out: mean velocity change from six fish, Trial 1.
Setting [11] is: read-out: mean velocity change from six fish, Trial 2.
Setting [12] is: recombinant, stably expressed human receptor, clemizole analogues.

pKi: −log10 of the molar value. Counter-ions that a name gives are not always drawn. Like-named read-outs stand apart in the source and are kept apart here.

human 5-HT2AR, sequence (P28223 whole entry): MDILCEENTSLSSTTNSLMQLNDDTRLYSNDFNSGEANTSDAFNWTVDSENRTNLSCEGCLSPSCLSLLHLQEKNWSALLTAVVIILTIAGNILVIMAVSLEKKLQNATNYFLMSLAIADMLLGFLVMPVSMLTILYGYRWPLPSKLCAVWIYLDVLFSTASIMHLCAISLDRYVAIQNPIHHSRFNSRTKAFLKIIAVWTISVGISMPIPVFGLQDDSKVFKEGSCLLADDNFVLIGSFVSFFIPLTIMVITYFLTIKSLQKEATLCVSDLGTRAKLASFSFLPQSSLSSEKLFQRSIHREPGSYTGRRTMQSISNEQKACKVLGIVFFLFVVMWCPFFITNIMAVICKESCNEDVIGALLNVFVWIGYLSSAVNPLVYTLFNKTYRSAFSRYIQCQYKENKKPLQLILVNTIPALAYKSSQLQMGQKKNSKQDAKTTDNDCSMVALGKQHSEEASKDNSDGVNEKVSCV
human 5-HT2BR, sequence (P41595 whole entry): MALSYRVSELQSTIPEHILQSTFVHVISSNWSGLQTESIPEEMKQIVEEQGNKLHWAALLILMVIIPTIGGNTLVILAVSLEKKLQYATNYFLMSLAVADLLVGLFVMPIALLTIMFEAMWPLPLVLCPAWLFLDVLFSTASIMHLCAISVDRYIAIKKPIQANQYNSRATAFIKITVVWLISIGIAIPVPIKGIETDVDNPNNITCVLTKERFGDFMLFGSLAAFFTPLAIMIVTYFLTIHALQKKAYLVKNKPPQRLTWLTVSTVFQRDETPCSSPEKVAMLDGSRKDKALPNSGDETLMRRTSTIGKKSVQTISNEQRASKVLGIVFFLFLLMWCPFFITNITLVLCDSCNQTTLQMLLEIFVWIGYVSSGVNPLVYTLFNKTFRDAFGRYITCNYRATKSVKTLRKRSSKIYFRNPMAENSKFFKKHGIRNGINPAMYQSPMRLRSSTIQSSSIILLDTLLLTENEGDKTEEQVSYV
human H1, sequence (P35367 whole entry): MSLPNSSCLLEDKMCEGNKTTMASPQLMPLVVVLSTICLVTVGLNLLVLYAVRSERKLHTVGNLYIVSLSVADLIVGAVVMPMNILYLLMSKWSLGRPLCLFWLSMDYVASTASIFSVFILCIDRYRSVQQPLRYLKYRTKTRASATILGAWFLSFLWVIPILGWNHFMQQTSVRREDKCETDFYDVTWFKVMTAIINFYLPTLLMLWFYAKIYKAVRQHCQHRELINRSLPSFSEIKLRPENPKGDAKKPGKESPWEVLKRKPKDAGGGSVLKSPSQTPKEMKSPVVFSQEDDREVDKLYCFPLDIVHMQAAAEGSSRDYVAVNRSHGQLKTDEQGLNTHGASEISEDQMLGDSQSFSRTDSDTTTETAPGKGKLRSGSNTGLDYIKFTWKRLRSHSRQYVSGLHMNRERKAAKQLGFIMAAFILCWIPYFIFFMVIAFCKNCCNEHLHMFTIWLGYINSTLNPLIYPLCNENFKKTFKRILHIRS

For `Clc1ccc(Cn2c(CC3CCCC3)nc3ccccc32)cc1` [Compound 1], the change in vivo at 100 µM in the data set on scn1lab mutant zebrafish (setting [4]), in the data set with scn1lab mutant zebrafish (setting [5]), in the data set on scn1lab mutant zebrafish (setting [6]), in the data set with scn1lab mutant zebrafish (setting [7]), with scn1lab mutant zebrafish (setting [8]) and in the data set on scn1lab mutant zebrafish (setting [9]) was -100% throughout. The change in vivo at 100 µM in the data set on scn1lab mutant zebrafish (setting [10]) and with scn1lab mutant zebrafish (setting [11]) was -100% in each case. For the same compound, the change in vivo at 250 µM in the data set on scn1lab mutant zebrafish (setting [4]) is -100%; in the data set with scn1lab mutant zebrafish (setting [5]) it was -60%; in the data set with scn1lab mutant zebrafish (setting [6]), -100%; in the data set with scn1lab mutant zebrafish (setting [7]) it was -100%; with scn1lab mutant zebrafish (setting [8]), -100%; in the data set with scn1lab mutant zebrafish (setting [9]), -100%. In addition, the change in vivo at 250 µM in the data set with scn1lab mutant zebrafish (setting [10]) was -96.2%. Also, the “toxicity in initial analogue screening” value in data set [1] is on record as “toxic”. In addition, the results for the negative-log Ki (pKi) on human 5-HT2BR and at human 5-HT2CR [2] were 6.30 and 5.56, respectively.

On to `O=C(c1nc2ccccc2n1Cc1ccc(Cl)cc1)N1CCCC1` [Compound 2], for which the change in vivo at 100 µM in the data set with scn1lab mutant zebrafish (setting [4]) was -68.2%; in the data set on scn1lab mutant zebrafish (setting [5]), -100%; with scn1lab mutant zebrafish (setting [6]), -100%; with scn1lab mutant zebrafish (setting [7]), -100%; with scn1lab mutant zebrafish (setting [8]) it was -100%; with scn1lab mutant zebrafish (setting [9]), -100%. The change in vivo at 100 µM in the data set on scn1lab mutant zebrafish (setting [10]) and in the data set with scn1lab mutant zebrafish (setting [11]) was -97.2% each time. For the same compound, the change in vivo at 250 µM in the data set with scn1lab mutant zebrafish (setting [4]), in the data set on scn1lab mutant zebrafish (setting [5]), with scn1lab mutant zebrafish (setting [6]), in the data set with scn1lab mutant zebrafish (setting [7]), in the data set on scn1lab mutant zebrafish (setting [8]) and in the data set on scn1lab mutant zebrafish (setting [9]) was -100% in each case. The change in vivo at 250 µM in the data set with scn1lab mutant zebrafish (setting [10]) is -100%. Further, the “toxicity in initial analogue screening” value in data set [1] is on record as “toxic”.

As to `c1ccc(Cn2c(CN3CCCC3)nc3ccccc32)cc1` [Compound 3], the pKi at human 5-HT2AR (setting [12]) is 6.49; on human 5-HT2BR (setting [12]), 7.08; on human 5-HT2CR [2] (setting [12]) it was 6.53; at human H1 (setting [12]), 8.32.

Consider `CCCn1c(CN2CCCC2)nc2ccccc21.O=CO` [Compound 5], for which, in the data set on scn1lab mutant zebrafish, the “effect on seizure-like swim behaviour, initial library screen” value was “no significant effect on swim behaviour”. In addition, the “effect on seizure-like swim behaviour, retest of independently synthesized compound” value in the data set with scn1lab mutant zebrafish was “no significant effect on the swim behaviour”. The pKi at human 5-HT2AR (setting [12]) is under 5.00; at human 5-HT2BR (setting [12]), 6.66; on human 5-HT2CR [2] (setting [12]), under 5.00; on human H1 (setting [12]) it was 6.44.

As to `Fc1ccc(Cn2c(CN3CCCC3)nc3ccccc32)cc1` [Compound 7], the negative logarithm of the Ki (pKi) at human 5-HT2AR (setting [12]) was 7.82; on human 5-HT2BR (setting [12]), 7.34; on human 5-HT2CR [2] (setting [12]) it was 6.46; on human H1 (setting [12]), 9.00.

In the case of `Clc1ccc(Cn2c(CN3CCCC3)cc3ccccc32)cc1` [Compound 11], the change in vivo at 100 µM was found to be 39.3% in the data set with scn1lab mutant zebrafish (setting [4]); 403% in the data set on scn1lab mutant zebrafish (setting [5]); 91.2% with scn1lab mutant zebrafish (setting [6]); 120% in the data set with scn1lab mutant zebrafish (setting [7]); 149% with scn1lab mutant zebrafish (setting [8]); 66.8% in the data set with scn1lab mutant zebrafish (setting [9]). The change in vivo at 100 µM in the data set with scn1lab mutant zebrafish (setting [10]) and in the data set on scn1lab mutant zebrafish (setting [11]) was 124% throughout. Further, the change in vivo at 250 µM in the data set on scn1lab mutant zebrafish (setting [4]), in the data set on scn1lab mutant zebrafish (setting [5]), with scn1lab mutant zebrafish (setting [6]), in the data set on scn1lab mutant zebrafish (setting [7]), in the data set on scn1lab mutant zebrafish (setting [8]) and with scn1lab mutant zebrafish (setting [9]) was -100% each time. Further, the change in vivo at 250 µM in the data set on scn1lab mutant zebrafish (setting [10]) was -100%. The negative logarithm of the Ki (pKi) on human 5-HT2AR was 6.20; at human 5-HT2BR, 6.87; at human 5-HT2CR [2], 6.61; on human H1, 8.19.

With `Nc1ccc(Cn2c(CN3CCCC3)nc3ccccc32)cc1` [Compound 14], the “effect on seizure-like swim behaviour, initial library screen” value with scn1lab mutant zebrafish is “no significant effect on swim behaviour”. The “effect on seizure-like swim behaviour, retest of independently synthesized compound” value in the data set with scn1lab mutant zebrafish is on record as “no significant effect on the swim behaviour”. Moreover, the pKi is under 5.00 on human 5-HT2AR (setting [12]), 6.22 on human 5-HT2BR (setting [12]), under 5.00 on human 5-HT2CR [2] (setting [12]) and 7.57 on human H1 (setting [12]).

For `Clc1ccc(Cn2c(CN3CCCCC3)nc3ccccc32)cc1` [Compound 22], the “toxicity in initial analogue screening” value in data set [1] is reported as “toxic”. The pKi at human 5-HT2AR (setting [12]) is 6.21; on human 5-HT2BR (setting [12]), 6.51; on human 5-HT2CR [2] (setting [12]) it was 5.34; on human H1 (setting [12]) it was 8.07.

As for `Clc1ccc(Cn2c(CN3CCOCC3)nc3ccccc32)cc1` [Compound 23], in data set [1], the “toxicity in initial analogue screening” value is recorded as “toxic”. Also, the pKi at human 5-HT2AR (setting [12]) is under 5.00; at human 5-HT2BR (setting [12]) it was 6.29; at human 5-HT2CR [2] (setting [12]), under 5.00; at human H1 (setting [12]), 7.47.

Take `CN1CCN(Cc2nc3ccccc3n2Cc2ccc(Cl)cc2)CC1` [Compound 26]: the negative logarithm of the Ki (pKi) at human 5-HT2AR (setting [12]) is 6.50; at human 5-HT2BR (setting [12]), 7.70; on human 5-HT2CR [2] (setting [12]) it was 6.50; on human H1 (setting [12]) it was 8.92.

Take `FC1(F)CCN(Cc2nc3ccccc3n2Cc2ccc(Cl)cc2)CC1` [Compound 27]: in data set [1], the “toxicity in initial analogue screening” value is “toxic”. Besides, the pKi on human 5-HT2AR (setting [12]) is under 5.00; on human 5-HT2BR (setting [12]) it was under 5.00; at human 5-HT2CR [2] (setting [12]), 5.15; at human H1 (setting [12]) it was 6.35.

In the case of `Clc1ccc(Cn2c(CN3CCSC3)nc3ccccc32)cc1` [Compound 28], the pKi on human 5-HT2AR (setting [12]) was under 5.00; on human 5-HT2BR (setting [12]), 6.33; at human 5-HT2CR [2] (setting [12]), 5.96; on human H1 (setting [12]), 7.36.

Regarding `CN1CCc2cccc3c2[C@H]1Cc1ccc(O)c(O)c1-3` [apomorphine, (−)-Apomorphine hydrochloride, reference compound], the “effect on seizure-like swim behaviour, commercially available compounds” value (“effect … commercially available compounds” for short) with scn1lab mutant zebrafish is recorded as “significantly increased mean swim velocity”.

Consider `CC(C)C[C@H]1C(=O)N2CCC[C@H]2[C@]2(O)O[C@](NC(=O)[C@@H]3C=C4c5cccc6[nH]c(Br)c(c56)C[C@H]4N(C)C3)(C(C)C)C(=O)N12` [bromocriptine, Bromocriptine mesylate, reference compound], for which, in the data set with scn1lab mutant zebrafish (10 µM), the “effect on seizure-like swim behaviour at 10 µM” value is “significantly reduced seizure-like swim behaviour”.

Consider `Cl.Clc1cccc(N2CCNCC2)c1` [m-CPP, reference compound], for which the “effect … commercially available compounds” value in the data set with scn1lab mutant zebrafish is “biphasic response”.

Consider `CC(N)Cc1c[nH]c2ccc(OCc3cccs3)cc12` (centres unmarked) [reference compound], for which the “effect … commercially available compounds” value with scn1lab mutant zebrafish is on record as “failed to reach our significance threshold”. Also, the Ki on human 5-HT2CR [3] was 115 nM.

As a reminder, the pKi is the Ki on a negative log10 scale, so that one unit is a factor of ten.

The record behind these values is article PMC6798786 (Brain Communications, 2019).
